Test results as given in article PMC10397409, “The action of physiological and synthetic steroids on the calcium channel CatSper in human sperm” (Frontiers in Cell and Developmental Biology, 2023).
pEC50, pIC50: −log10 of the molar value. Read-outs that look alike come from different tables or passages of the source.

What was measured:
CatSper [1] = target: T1, CatSper (Homo sapiens, UniProt Q7RTX7+Q86XQ3+Q8NEC5+Q96P56); parameters: method as in Carlson et al., 2022b; conditions: ref Carlson et al., 2022b; read-out: IC50 inhibiting P4-induced response; cited from earlier work
T1 construct: Motile spermatozoa were selected by a ‘swim-up’ procedure; endogenous in cells; host or cells: motile human spermatozoa (swim-up) from healthy donors

CatSper [2] = target: T1, CatSper; assay: Steroid-induced increase in [Ca2+]i in human sperm (Fluo-4 HTS assay, screen 1 activators); assay type: cell-based; conditions: for Emax: read-out: Max amplitude (%) (± SD); for EC50: pooled from 3 independent experiments
Method: (§1) Briefly, motile spermatozoa were selected by swim-up and labeled with the fluorescent calcium indicator Fluo-4 a.m. to image changes in [Ca^2+]i. After centrifugation to remove excess dye, Fluo-4 AM loaded cells were distributed in a 384-wells plate to obtain ∼125,000 cells/well. After measuring basal fluorescence, a first injection of compounds was performed in order to evaluate their effect on [Ca^2+]i alone. This first screen is therefore considered as a screen to search for ‘activators’. Fluorescence was recorded for 12 min during which sperm cells were continuously exposed to compounds. P4 or PGE1 were then added in the same wells to evaluate whether the tested compounds can reduce the ligand-induced activation of CatSper. This second screen was therefore considered to be a search for CatSper ‘inhibitors’.
Human semen samples were collected from healthy donors by masturbation after a recommended sexual abstinence period of minimum 2 days. Semen samples were allowed to liquefy at 37°C for 15–30 min. […] Motile sperm were allowed to swim at 37°C for 1 hour. The supernatant was collected in 15 mL Falcon tubes and washed twice by centrifugation at 700 x g for 20 min. Sperm were supplemented with 3 mg/mL HSA.
20 μL of cells (corresponding to ∼125,000 cells) loaded with Fluo-4 a.m. were dispensed in a 384-wells plate (Corning, NY, United States) to allow fluorescence measurement. The dye was excited at 480 nm, and emission was recorded at 530 nm. The change in [Ca^2+]i was assessed simultaneously in all wells using a Functional Drug Screening System (FDSS/μCELL) (Hamamatsu Phototonics K.K., Yokohama, Japan) at 37°C. Basal fluorescence was first measured for 30 s. […] P4 and PGE1 were tested at a near-saturating concentration in the HTS in order to evaluate a potential additive or synergistic effect induced by the compounds. […] For alkalization-induced Ca^2+ measurement, NH4Cl was used as a positive control at a final concentration of 10 mM. […] The Prestwick library was tested in technical duplicate. Ca^2+ response curves were normalized using the following formula F−F0/F0×100 , where F 0 is the average of the basal fluorescence prior to the addition of the compound of interest and F corresponds to the fluorescence value at each time point. The ∆F/F0 of the vehicle control (DMSO) was subtracted from all the other values to adjust for dilution and pipetting artifacts. The values of all compounds were normalized to their respective controls.
Data are shown as mean ± standard deviation (SD) with “n” referring to the number of independent experiments performed using sperm samples from ≥3 different donors. Statistical analysis and fitting of dose-response relations were performed using GraphPad Prism 8.1.1 (Prism, La Jolla, United States). To generate sigmoidal curves, the concentrations were converted to their respective log values, and the data were normalized using the following formula: 100⋅x/Fmax , where Fmax is the maximum value of the positive control. A four-parameter Hill equation with a variable Hill coefficient was fitted to generate the EC02, EC50, and IC50. Statistical significance between control and treated conditions was evaluated using a one-way analysis of variance (ANOVA), followed by Dunnett´s test. A p-value <0.05 was considered significant.

CatSper [3] = target: T1, CatSper; assay: Inhibition of P4-induced Ca2+ influx in human sperm (screen 2 inhibitors); assay type: cell-based; conditions: for Max P4 inhibition (%) (± SD): 3 independent experiments; for IC50: P4-induced response, pooled from 3 independent experiments
Method: as §1
(§2) Human semen samples were collected from healthy donors by masturbation after a recommended sexual abstinence period of minimum 2 days. Semen samples were allowed to liquefy at 37°C for 15–30 min. Motile spermatozoa were selected by a ‘swim-up’ procedure as previously described ([Strünker et al., 2011]). Briefly, 1 mL of semen was deposited in a 45°-inclined 50 mL Falcon tube with 4 mL of Human Tubular Fluid (HTF) medium containing: 93.8 mM NaCl, 4.7 mM KCl, 0.2 mM MgSO4, 0.37 mM KH2PO4, 2.04 mM CaCl2, 20.98 mM HEPES, 2.78 mM glucose, 21.4 mM Na-lactate, 4 mM NaHCO3, 0.33 mM Na-pyruvate, and the pH was adjusted to 7.35. Motile sperm were allowed to swim at 37°C for 1 hour. The supernatant was collected in 15 mL Falcon tubes and washed twice by centrifugation at 700 x g for 20 min. Sperm were supplemented with 3 mg/mL HSA. Written informed consent was obtained from all donors prior to donation and approved by the Cantonal Ethics Committee of the State of Geneva (CCER #14-147).
(§3) Cells were loaded with the fluorescent Ca^2+ indicator Fluo-4 AM at a final concentration of 2.5 µM for 30 min at 37°C. Excess dye was washed via centrifugation at 700 x g for 20 min and sperm were resuspended in HTF medium to obtain a final concentration of 6.25 x 10^6 cells/mL. 20 μL of cells (corresponding to ∼125,000 cells) loaded with Fluo-4 a.m. were dispensed in a 384-wells plate (Corning, NY, United States) to allow fluorescence measurement. The dye was excited at 480 nm, and emission was recorded at 530 nm. The change in [Ca^2+]i was assessed simultaneously in all wells using a Functional Drug Screening System (FDSS/μCELL) (Hamamatsu Phototonics K.K., Yokohama, Japan) at 37°C. Basal fluorescence was first measured for 30 s. […] P4 and PGE1 were tested at a near-saturating concentration in the HTS in order to evaluate a potential additive or synergistic effect induced by the compounds. Non-specific CatSper inhibitor MDL 12330A was used as a negative control at final concentration of 20 µM while DMSO was used as a vehicle control. For alkalization-induced Ca^2+ measurement, NH4Cl was used as a positive control at a final concentration of 10 mM. Fluorescence was recorded for a total of 16.5 min: 30 s before injection, 12 min after the first injection of the tested compounds, and 4 min after the second injection of either P4 or PGE1. The Prestwick library was tested in technical duplicate. Ca^2+ response curves were normalized using the following formula F−F0/F0×100 , where F 0 is the average of the basal fluorescence prior to the addition of the compound of interest and F corresponds to the fluorescence value at each time point. The ∆F/F0 of the vehicle control (DMSO) was subtracted from all the other values to adjust for dilution and pipetting artifacts. The values of all compounds were normalized to their respective controls.

CatSper [4] = target: T1, CatSper; assay: Inhibition of PGE1-induced Ca2+ influx in human sperm (screen 2 inhibitors); assay type: cell-based; conditions: for IC50: PGE1-induced response, pooled from 3 independent experiments, read-out: Mean IC50 (PGE1) µM (±SD)
Method: as §1, §2, §3

human sperm = assay: Sperm penetration in viscous media (modified Kremer test); assay type: cell-based; conditions: steroids 10 µM, P4 5 µM, 1 h, 1% methylcellulose
Method: The ability of sperm to penetrate in viscous media similar in viscosity to that found in the female reproductive tract was assessed using the modified Kremer test, as previously described ([Rahban et al., 2021]). Briefly, swim-up recovered and capacitated sperm cells at 3 x 10^6/mL were incubated in the absence (DMSO) or presence of steroids (10 µM), or P4 (5 µM) as a positive control for 1 h at 37°C. A glass capillary (0.2 × 4.0 × 50 mm, CM scientific, UK) was filled with 1% (w/v) methylcellulose (MC, 4000 centipoises cP) prepared with HTF media supplemented with 3 mg/mL HSA, respective compounds (10 µM), P4 (5 µM), or DMSO. The glass capillary tube was then sealed on one end with wax (Vitrex, UK) and added to the sperm cells on the open end. Sperm penetration was assessed after 1 h of incubation at 37°C by counting sperm at 1 cm using a microscope with a ×10 objective.

[5] = maximal amplitude of steroid-induced [Ca2+]i increase, relative to P4, 3 independent experiments
[6] = read-out: Mean IC50 (P4) µM (±SD)

| SMILES | pIC50 (CatSper [1]) | Emax (CatSper [2]; [5]) [%] | EC50 (CatSper [2]; read-out: Mean EC50 µM (±SD)) [µM] | Max P4 inhibition (%) (± SD) (CatSper [3]) | IC50 (CatSper [3]; [6]) [µM] | IC50 (CatSper [4]) [µM] | other results |
| --- | --- | --- | --- | --- | --- | --- | --- |
| CC(=O)O[C@]1(C(C)=O)CC[C@H]2[C@@H]3C[C@H](C)C4=CC(=O)CC[C@]4(C)[C@H]3CC[C@@]21C [medroxyprogesterone acetate] | 5.18 | – | – | – | – | – | – |
| C[C@]12CC[C@@H]3c4ccc(OS(=O)(=O)O)cc4CC[C@H]3[C@@H]1CCC2=O [Estropipate] | – | 106 | 0.159 | 90 (±10) % | 0.28 | 0.282 | effective concentrations as low as (dose-dependent increase in [Ca2+]i) (CatSper [2]): 10 nM; pEC50 (CatSper [2]; increase in [Ca2+]i, dose-response 90 µM to 0.3 nM, read-out: EC50 (±SD)): 6.79; increase in [Ca2+]i (in words) (CatSper [2]; steroids 10 µM): highest increase in [Ca^2+]i; pIC50 (CatSper [3]; inhibition of P4-induced Ca2+ response, dose-response 90 µM to 0.3 nM, read-out: IC50 (±SD)): 6.54; number of sperm penetrating viscous medium at 1 cm (human sperm): significant increase in cell number |
| C[C@]12CCC(=O)C=C1CC[C@@H]1[C@@H]2[C@@H](O)C[C@]2(C=O)[C@@H](C(=O)CO)CC[C@@H]12 [aldosterone] | 4.48 | – | – | – | – | – | – |
| CC(=O)O[C@]1(C(C)=O)CC[C@H]2[C@@H]3C=C(Cl)C4=CC(=O)CC[C@]4(C)[C@H]3CC[C@@]21C [chlormadinone acetate] | – | 4 | 34.7 | 0 (±15) % | – | 38.4 | – |
| CCCC1O[C@@H]2C[C@H]3[C@@H]4CCC5=CC(=O)C=C[C@]5(C)[C@H]4[C@@H](O)C[C@]3(C)[C@]2(C(=O)CO)O1 (stereo partly drawn) [budesonide] | – | 7 | – | 3 (±8) % | – | > 100 | – |
| C#C[C@]1(O)CC[C@H]2[C@@H]3CCC4=CC(=O)CC[C@@H]4[C@H]3CC[C@@]21CC [levonorgestrel] | 4.49 | – | – | – | – | – | – |
| C[C@]12C/C(=C/O)C(=O)C[C@@H]1CC[C@@H]1[C@@H]2CC[C@@]2(C)[C@H]1CC[C@]2(C)O [oxymetholone] | – | – | – | 62 (±9) % | – | – | EC50 (CatSper [2]; Mean EC50 µM (±SD)): 1.3 µM; Emax (CatSper [2]): 82%; IC50 (CatSper [3]; Mean IC50 (P4) µM (±SD)): 4.74 µM; pIC50 (CatSper [4]): 4.93 |
| C#C[C@]1(OC(C)=O)CC[C@H]2[C@@H]3CCC4=C[C@@H](OC(C)=O)CC[C@@H]4[C@H]3CC[C@@]21C [ethynodiol diacetate] | – | 35 | 17.7 | 22 (±14) % | 13.9 | 12.2 | – |
| C#C[C@]1(O)CC[C@H]2[C@@H]3CCc4cc(O)ccc4[C@H]3CC[C@@]21C [ethinylestradiol] | – | 69 | 1.8 | 50 (±14) % | 3.36 | 6.68 | – |
| CC(C)(C)NC(=O)[C@H]1CC[C@H]2[C@@H]3CC[C@H]4NC(=O)C=C[C@]4(C)[C@H]3CC[C@]12C [finasteride] | – | 39 | 0.78 | 18 (±6) % | – | > 100 | – |
